Several values for one entry are separate records, joined by “and”; a condition that tells them apart may be missing. Equal entries are not always repeated.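 Interpolation was linear, between the two tested concentrations surrounding the appropriate level; five concentrations were tested over 48 hours in 96-well plates. The concentration for 50% growth inhibition is given as GI50. At the TGI there is no net growth.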
Assays:
Assay in all cases: NCI-60 cell line screen, 48 h
SR leukemia = tested on: SR leukemia
RPMI-8226 leukemia = tested on: RPMI-8226 leukemia
DU-145 prostate = tested on: DU-145 prostate
MCF7 breast = tested on: MCF7 breast
NCI-H23 lung = tested on: NCI-H23 lung
CAKI-1 renal = tested on: CAKI-1 renal
PC-3 prostate = tested on: PC-3 prostate
SNB-19 CNS = tested on: SNB-19 CNS
MALME-3M melanoma = tested on: MALME-3M melanoma
SK-MEL-28 melanoma = tested on: SK-MEL-28 melanoma

Structure (SMILES) | GI50 (SR leukemia) | TGI (SR leukemia) | GI50 (RPMI-8226 leukemia) | TGI (RPMI-8226 leukemia) | GI50 (DU-145 prostate) | TGI (DU-145 prostate) | GI50 (MCF7 breast) | GI50 (NCI-H23 lung) | TGI (NCI-H23 lung) | GI50 (CAKI-1 renal) | TGI (CAKI-1 renal) | GI50 (PC-3 prostate) | TGI (PC-3 prostate) | GI50 (SNB-19 CNS) | TGI (SNB-19 CNS) | GI50 (MALME-3M melanoma) | TGI (MALME-3M melanoma) | GI50 (SK-MEL-28 melanoma) | TGI (SK-MEL-28 melanoma) | TGI (MCF7 breast)
O=C(Nc1ccc([N+](=O)[O-])cc1Cl)c1cc(Cl)ccc1O | 0.145 µM and 0.134 µM | 0.761 µM | 0.0502 µM and 0.176 µM | 0.287 µM | 0.199 µM and 0.352 µM | 6.22 µM and 35.5 µM | 0.151 µM and 0.286 µM | 0.104 µM and 0.19 µM | 0.39 µM and 0.737 µM | 0.108 µM and 0.227 µM | 4.21 µM | 0.203 µM and 0.295 µM | 5.42 µM and > 38.7 µM | 0.164 µM and 0.248 µM | 50 µM and > 100 µM | 0.101 µM and 0.194 µM | 0.338 µM and 0.744 µM | 0.165 µM and 0.243 µM | 2.03 µM and 2.01 µM | 
O=C(COc1ccc(Cl)cc1Cl)NNc1ccc([N+](=O)[O-])cc1 | 49.9 µM | > 100 µM | > 100 µM | > 100 µM | 53.3 µM | > 100 µM | > 100 µM | 41.5 µM | > 100 µM | > 100 µM | > 100 µM | > 100 µM | > 100 µM | 25 µM | 95.6 µM | 23.6 µM | 57.1 µM | 39.1 µM | > 100 µM | > 100 µM
Nc1nc(N)c2c(n1)NC(c1ccc(Cl)cc1)C1CCc3ccccc3C1=N2 (stereo not drawn) | 1.73 µM | 5.01 µM | 2.75 µM | 11.5 µM | 11.2 µM | 23.3 µM | 2.41 µM | 4.88 µM | 18 µM | 4.33 µM | 18.8 µM | 2.86 µM | 14.5 µM | 16.8 µM | 30.4 µM | 8.48 µM | 22.8 µM | 13.9 µM | 27.4 µM | 10.4 µM
COc1ccc2c(c1)C(=O)CC(C(N)=O)C2 (stereo not drawn) |  | > 100 µM |  | > 100 µM |  | > 100 µM |  |  | > 100 µM |  | > 100 µM |  | > 100 µM |  | > 100 µM |  | > 100 µM |  | > 100 µM | > 100 µM
Nc1[nH]c(=S)[nH]c(=O)c1N=Nc1c(Br)cc(S(N)(=O)=O)cc1Br |  | > 100 µM |  | > 100 µM |  | > 100 µM |  |  | > 100 µM |  | > 100 µM |  | > 100 µM |  | > 100 µM |  | > 100 µM |  | > 100 µM | > 100 µM
Cn1cc(-c2[nH]c3cc(NC(=O)[C@H](N)C4CCCCC4)cc4c3c2C=NNC4=O)cn1 | 0.0566 µM and 0.12 µM | 0.622 µM and 1.1 µM | 3.18 µM and 3.24 µM | 11.5 µM and > 10 µM | 0.508 µM and 0.528 µM | 19.8 µM and > 10 µM | 0.211 µM and 0.209 µM | 0.267 µM and 0.197 µM | 9.52 µM and > 10 µM | 1.8 µM and 0.705 µM | 10.5 µM and > 7.91 µM | 0.72 µM and 1.96 µM | 18.3 µM and > 10 µM | 0.65 µM and 0.47 µM | 19.7 µM and > 10 µM | 2.22 µM and 0.517 µM | 24.7 µM and > 10 µM | 7.99 µM | 21.9 µM and > 10 µM | 15.8 µM and > 10 µM
CC1NCCC(CC(=O)O)C1CC(=O)O (stereo not drawn) |  | > 100 µM |  | > 100 µM |  | > 100 µM |  |  | > 100 µM |  | > 100 µM |  | > 100 µM |  | > 100 µM |  | > 100 µM |  | > 100 µM | > 100 µM
O=C(Nc1ccc(-c2cn3ccccc3n2)cc1)c1cc(Br)ccc1O |  | > 100 µM |  | > 100 µM |  | > 100 µM |  |  | > 100 µM |  | > 100 µM |  | > 100 µM |  | > 100 µM |  | > 100 µM |  | > 100 µM | > 100 µM
COc1ccc(C2CC(=O)Nc3c2c(C)nn3-c2nc3ccccc3[nH]2)cc1OC (stereo not drawn) | 3.36 µM | 26.2 µM | 3.08 µM | 8.68 µM | 6.87 µM | 27.1 µM | 3.78 µM | 3.66 µM | 22.1 µM | 3.83 µM | 24.3 µM | 4.27 µM | 63.6 µM | 8.64 µM | > 100 µM | 4.94 µM | 29 µM | 4.9 µM | > 100 µM | > 100 µM
CS(=O)(=O)Nc1cc(-c2ccc3ncnc(Nc4ccc(OCc5ccccn5)c(Cl)c4)c3c2)cnc1Cl | 0.374 µM | 2.77 µM | 0.286 µM | 1.03 µM | 0.52 µM | > 100 µM | 0.185 µM | 0.381 µM | > 100 µM | 1.09 µM | 3.66 µM | 0.349 µM | > 100 µM | 0.449 µM | > 100 µM | 0.0851 µM | 0.736 µM | 0.256 µM | 3.92 µM | > 100 µM
O=C1NC(=O)/C(=C/c2ccc3nccc(-c4ccncc4)c3c2)S1 | 0.547 µM | 4.88 µM | 1.19 µM | 6.75 µM | 0.431 µM | > 5.79 µM | 0.164 µM | 0.633 µM | > 6 µM | 0.289 µM | 2.04 µM | 0.282 µM | 2.9 µM | 0.429 µM | 5.93 µM | 0.288 µM | 2.12 µM | 0.237 µM | 2.29 µM | > 10 µM
COc1cccc(/C=C/C(=O)c2cc3c(N)c(C(=O)Nc4ccccc4)sc3nc2C)c1 | 1.28 µM | 6.46 µM | 1.18 µM | 2.54 µM | 1.39 µM | 4.37 µM | 1.69 µM | 1.2 µM | 3.05 µM | 0.933 µM | 1.91 µM | 1.47 µM | 5.06 µM | 1.52 µM | 5.58 µM | 2.03 µM | 15 µM | 1.72 µM | 6.45 µM | 8.85 µM
COc1ccc(CC2OC3(CCCCC3)CC3CCCCN32)cc1 (stereo not drawn) |  | > 100 µM |  | > 100 µM |  | > 100 µM |  |  | > 100 µM |  | > 100 µM |  | > 100 µM |  | > 100 µM |  | > 100 µM |  | > 100 µM | > 100 µM
CCN1C(=O)N(CC)C2C1NN=c1s/c(=C\c3ccc(Br)cc3)c(=O)n12 (stereo not drawn) | 0.04 µM | > 100 µM | 0.269 µM |  | 0.352 µM | > 100 µM | 0.0443 µM | 0.422 µM | > 100 µM | 0.065 µM | > 100 µM | 0.168 µM | > 100 µM | 0.346 µM | > 100 µM | 2.39 µM | > 100 µM | > 53.8 µM | > 100 µM | > 100 µM

Reference: PubChem BioAssay (NCI)
